Experiments:
[1] = target: T1, StDHOase (Salmonella typhimurium, UniProt P06204); test: rapid spectrophotometric DHOase enzyme assay (hydrolysis of DHO); format: biochemical, Salmonella enterica serovar Typhimurium LT2; settings: PLU 200 μM
T1 construct: made in house; host or cells: E. coli BL21(DE3)
Description: A rapid spectrophotometric assay was used to determine the activity of DHOase. Briefly, the hydrolysis of DHO was measured at 25 °C as the decrease in absorbance at 230 nm. The purified DHOase was added to a 2 mL solution containing 0.5 mM DHO and 100 mM Tris–HCl at pH 8.0 to start the reaction. The extinction coefficient of DHO was 0.92 mM^−1·cm^−1 at 230 nm. The hydrolysis of DHO was monitored using a UV/Vis spectrophotometer (Hitachi U 3300; Hitachi High-Technologies, Tokyo, Japan). A unit of activity was defined as the amount of enzyme catalyzing the hydrolysis of 1 μmol DHO/min, and the specific activity was expressed in terms of units of activity per mg of enzyme. The kinetic parameters Km and Vmax were determined from a nonlinear plot by fitting the hydrolyzing rate from individual experiments to the Michaelis–Menten equation (Enzyme Kinetics module of Sigma-Plot; Systat Software, Chicago, IL, USA).

[2] = tested on: tumor growth; settings: cited from earlier work
[3] = in vitro; format: cell-based, mouse; settings: mouse; PLU 2 μM, 4T1 cells; read-out: Death rate (cell mortality)
Description: (§1) The 4T1 cells (1 × 10^4) were incubated with PLU in a 100 μL volume. After 24 h, the anticancer potentiality was estimated.

[4] = tested on: 4T1 cells; test: in vitro; format: cell-based, mouse; settings: 10 μM PLU, 24 h, 4T1 cells
Description: as §1

[5] = tested on: 4T1 cells; test: wound-healing assay; format: cell-based, mouse
Description: The wound-healing assay was performed to study whether PLU can inhibit 4T1 cell migration. Briefly, 4T1 cells were seeded in 24-well plates, incubated in serum-reduced medium for 6 h, wounded in a line across the well with a 200 μL pipette tip, and washed twice with the serum-reduced medium. After different treatments, cells were incubated for 24 h to allow migration.

[6] = target: T1, StDHOase; test: fluorescence quenching binding assay; design: species or system Salmonella enterica serovar Typhimurium LT2
Description: (§2) Figure 7 The data used to calculate the Kd values of various DHOases. (A) The fluorescence emission spectra of ScDHOase with PLU of different concentrations (0–200 μM; 0, 10, 20, 50, 75, 100, 125, 150, 175, and 200 μM). The decrease in intrinsic fluorescence of protein was measured at 324 nm upon excitation at 280 nm with a spectrofluorometer. […] (B) The fluorescence emission spectra of huDHOase with PLU of different concentrations (0–200 μM). (C) The fluorescence emission spectra of StDHOase with PLU of different concentrations. (D) The fluorescence emission spectra of ScDHOase–R18A with PLU of different concentrations. (E) The fluorescence emission spectra of ScDHOase–T106A with PLU of different concentrations. […] (F) An aliquot amount of PLU was added to the enzyme solution to determine the Kd. The Kd was obtained by the following equation: ΔF = ΔFmax − Kd(ΔF/[PLU]). Data points are an average of 2–3 determinations within a 10% error.
(§3) The decrease in the intrinsic fluorescence of DHOase was measured with a spectrofluorometer (Hitachi F-2700; Hitachi High-Technologies, Japan). The Kd was obtained using the following equation: ΔF = ΔFmax − Kd(ΔF/[PLU]).
(§4) The Kd value of the purified DHOase was determined using the fluorescence quenching method as previously described for DHOase, DHPase, and DnaB helicase. Briefly, an aliquot of the compound was added into the solution containing DHOase (1 μM) and 50 mM HEPES at pH 7.0. The decrease in the intrinsic fluorescence of DHOase was measured at 324 nm upon excitation at 280 nm and 25 °C with a spectrofluorometer (Hitachi F-2700; Hitachi High-Technologies, Japan). The Kd was obtained using the following equation: ΔF = ΔFmax − Kd(ΔF/[PLU]).

[7] = target: T2, huDHOase (Homo sapiens, UniProt P27708); test: fluorescence quenching binding assay
T2 construct: huDHOase1456-1846-NdeI-N; made in house; host or cells: E. coli BL21(DE3)
T2 sequence (P27708 1456-1846): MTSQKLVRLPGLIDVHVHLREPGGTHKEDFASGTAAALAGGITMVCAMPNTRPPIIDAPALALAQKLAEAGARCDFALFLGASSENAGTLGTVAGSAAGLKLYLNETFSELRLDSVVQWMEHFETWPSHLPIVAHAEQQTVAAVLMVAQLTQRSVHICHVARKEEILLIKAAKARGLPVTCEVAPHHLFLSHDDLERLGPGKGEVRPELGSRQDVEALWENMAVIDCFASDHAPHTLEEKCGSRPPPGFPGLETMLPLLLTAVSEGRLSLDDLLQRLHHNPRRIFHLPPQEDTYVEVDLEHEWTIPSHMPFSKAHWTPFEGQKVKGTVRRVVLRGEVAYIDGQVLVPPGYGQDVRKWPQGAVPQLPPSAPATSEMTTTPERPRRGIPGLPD
Description: as §2, §3, §4

[8] = target: T3, ScDHOase (Saccharomyces cerevisiae, UniProt P20051); test: fluorescence quenching binding assay
T3 construct: made in house; host or cells: E. coli BL21(DE3)
Description: as §2, §3, §4

[9] = target: T4, ScDHOase–R18A (Saccharomyces cerevisiae, UniProt P20051, R18A); test: fluorescence quenching binding assay
T4 construct: made in house; host or cells: E. coli BL21(DE3)
Description: as §2, §3, §4

[10] = target: T5, ScDHOase–T106A (Saccharomyces cerevisiae, UniProt P20051, T106A); test: fluorescence quenching binding assay
T5 construct: made in house; host or cells: E. coli BL21(DE3)
Description: as §2, §3, §4

[11] = target: DHPase; design: method as in PMID 32147511; settings: cited from earlier work

T4 sequence (P20051 whole entry R18A): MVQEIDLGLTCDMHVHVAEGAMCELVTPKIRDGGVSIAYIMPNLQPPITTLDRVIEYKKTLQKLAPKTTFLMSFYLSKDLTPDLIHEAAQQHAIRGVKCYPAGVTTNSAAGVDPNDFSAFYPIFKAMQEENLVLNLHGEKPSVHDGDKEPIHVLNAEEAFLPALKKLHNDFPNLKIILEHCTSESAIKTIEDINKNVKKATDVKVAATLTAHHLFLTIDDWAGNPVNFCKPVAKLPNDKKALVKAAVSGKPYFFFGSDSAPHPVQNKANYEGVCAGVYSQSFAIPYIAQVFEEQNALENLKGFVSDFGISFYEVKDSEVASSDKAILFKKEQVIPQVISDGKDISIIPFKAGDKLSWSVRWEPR
T1 sequence (P06204 whole entry): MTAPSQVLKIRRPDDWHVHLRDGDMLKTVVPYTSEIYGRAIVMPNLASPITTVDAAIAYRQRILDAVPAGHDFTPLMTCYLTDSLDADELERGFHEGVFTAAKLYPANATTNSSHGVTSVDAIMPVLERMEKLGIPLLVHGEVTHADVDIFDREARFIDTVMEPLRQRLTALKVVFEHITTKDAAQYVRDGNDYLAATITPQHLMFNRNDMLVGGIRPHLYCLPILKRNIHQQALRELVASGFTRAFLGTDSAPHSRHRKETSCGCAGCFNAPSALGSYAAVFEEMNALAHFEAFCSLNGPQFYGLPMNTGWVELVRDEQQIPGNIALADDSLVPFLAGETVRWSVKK
T3 sequence (P20051 whole entry): as the sequence (P20051 whole entry R18A) above, with A18R counted along it
T5 sequence (P20051 whole entry T106A): as the sequence (P20051 whole entry R18A) above, with A18R, T106A counted along it

## CC1=CC(=O)c2c(O)cccc2C1=O [PLU, plumbagin]
[1]
  decrease of the activity of StDHOase: 71%
[2]; animal models
  tumor growth in PLU-treated mice: significant reduction in tumor growth
[2]; mouse, in vivo
  side effects in PLU-treated mice: no side effects
[3]
  mortality at 24 h, 2 μM: 8%
[4]
  cell deaths: 100%
[5]; Mus musculus, 10 μM PLU, 24 h, read-out: inhibition of cell migration
  inhibition at 10 µM: 97%
[5]; PLU 2 μM
  Migration rate: 84%
[6]
  Kd: 80.3 ± 2.5 µM
[6]; PLU 0–200 μM
  quenching of StDHOase: 85.9%
  λem shift of StDHOase: 11.0 nm
  λmax of StDHOase emission: from 330.5 to 319.5
[7]; PLU 0–200 μM
  quenching of huDHOase: 75.6%
  λem shift of huDHOase: 1.5 nm
  λmax of huDHOase emission: from 340 to 338.5
[7]; fluorescence quenching titration curve
  Kd: 151 ± 4.1 µM
[8]
  Kd: 64.8 ± 1.6 µM
[8]; 200 μM compound, 324 nm, excitation 280 nm
  quenching of the intrinsic fluorescence of ScDHOase: 87.7%
[8]; PLU 0–200 μM
  λmax of ScDHOase emission: from 324 to 317.5
[8]; PLU 0–200 μM, blue shift
  λem shift of ScDHOase: 6.5 nm
[9]
  Kd: 181 ± 5.9 µM
[9]; PLU 0–200 μM
  quenching of ScDHOase–R18A: 75.1%
  λem shift of ScDHOase–R18A: 4.0 nm
  λmax of ScDHOase–R18A emission: from 324.5 to 320.5
[10]
  Kd: 70.8 ± 2.6 µM
[10]; PLU 0–200 μM
  quenching of ScDHOase–T106A: 90.0%
  λem shift of ScDHOase–T106A: 6.5 nm
  λmax of ScDHOase–T106A emission: from 328 to 321.5
[11]
  IC50: 58 µM
